Experimental findings from patent US12398111B2, “Triazine compounds and pharmaceutical use thereof” (Japan Tobacco Inc., priority 2014, dated 2025) are described below.

The target in one test is T1, human mPGES-1 (Homo sapiens, UniProt O14684).
T1 construct: made in house; host or cells: FreeStyle CHO-S cells (Chinese hamster ovary), transient transfection with pcDNA3.1(+)/human mPGES-1; microsome fraction used
T1 sequence (O14684 1-152): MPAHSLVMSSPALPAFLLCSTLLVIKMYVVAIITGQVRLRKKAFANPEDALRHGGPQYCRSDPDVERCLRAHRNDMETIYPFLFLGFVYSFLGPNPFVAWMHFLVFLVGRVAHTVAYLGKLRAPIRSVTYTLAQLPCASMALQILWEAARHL
In words: Evaluation of human mPGES-1 enzyme inhibitory activity (PGE2 measured by HTRF, microsome fraction of CHO-S cells expressing human mPGES-1). In kind it is biochemical. To be noted: IC50 value; microsome fraction of CHO-S cells expressing human mPGES-1, PGE2 by HTRF. As for the experimental part:
That is, the amount of PGE2 produced by human mPGES-1 in the presence of a test article was measured by the HTRF (homogeneous time resolved fluorescence) method, based on which the human mPGES-1 enzyme inhibitory activity of the test article was determined.
1) Preparation of Human mPGES-1 Expressing Cell Microsome Fraction
A DNA fragment containing human mPGES-1, which is added with a BamHI recognition cleavage sequence immediately before the translation initiation codon and an EcoRI recognition cleavage sequence immediately after the translation termination codon was amplified by the PCR (Polymerase Chain Reaction) method using a human mPGES-1 expression plasmid DNA (pME-18S/iPGES-1) prepared in-house as a template. The purified DNA fragment was digested with BamHI and EcoRI, and ligated to pcDNA3.1(+) (Invitrogen, model number V790-20), similarly digested with BamHI and EcoRI, by using a DNA Ligation kit ver.2.1 (Takara Bio, model number 6022). The human mPGES-1 expression plasmid DNA was isolated from Escherichia coli DH5a (TOYOBO, model number DNA-903) transformed with the obtained ligation product. The base sequence of human mPGES-1 cloned to a vector was determined by the Dye Terminator method by using BigDye Terminator v3.1 Cycle Sequencing Kit (Applied Biosystems, #4337455).
Human mPGES-1 expression plasmid DNA was transfected into Chinese hamster ovary-derived cells (FreeStyle CHO-S Cell, Invitrogen, #R800-07) by using a transgene reagent (FreeStyle MAX Reagent (Invitrogen, #16447-100)), and cultured with shaking (8% CO2, 37° C.) in a medium containing 8 mmol/L L-glutamine (GIBCO FreeStyle CHO Expression Medium, Invitrogen, #12651-022) for 48 hr.
The CHO-S cells were suspended in Homogenate Buffer (100 mmol/L potassium phosphate (pH 7.4), 250 mmol/L Sucrose, 100 mmol/L EDTA, complete EDTA free (Roche, #1873580)). Using an ultrasonic disruptor UD-201 (Tomy Seiko), the suspended cells were disrupted at output:3, duty cycle:50 for 30 seconds. The precipitate was removed by centrifugation (1,000×g, 5 min, 4° C.), is and the supernatant was centrifuged (5,000×g, 10 min, 4° C.). The supernatant was further centrifuged (105,000×g, 60 min, 4° C.). The obtained precipitate was suspended in Resuspension Buffer (100 mmol/L potassium phosphate (pH 7.4), 250 mmol/L sucrose, 100 mmol/L EDTA, 10% glycerol) to give a microsome fraction.
The protein concentration of the microsome fraction was measured by the Bradford method (Protein Assay Kit, Bio-Rad). The microsome fraction was rapidly frozen in liquid nitrogen and preserved at −80° C. Human mPGES-1 in the microsome fraction was detected by Western Blot using rabbit anti-mPGES-1 polyclonal antibody (ThermoFisher Scientific, #PA1-10264).
2) Evaluation of Human mPGES-1 Enzyme Inhibitory Activity
A test article solution diluted with 0.1 mol/L potassium phosphate, pH 7.4 (hereinafter to be referred to as KPB) or DMSO (Nacalai Tesque, #13407-45) was added at 5 μL/well to 96 well V-bottom plate (Corning, #3363). The final DMSO concentration during the reaction was set to 2% (v/v). Furthermore, a microsome fraction of CHO-S cells expressing human mPGES-1, which was diluted with reduced GSH (12.5 mmol/L KPB solution, SIGMA, #G6529-25G) such that the protein concentration was 5 μg/mL, was added at 20 μL/well. The amount of the microsome fraction used is the amount of microsome fraction within a range where the amount of PGE2 produced under the reaction conditions shown below and the amount of microsome fraction used show linearity. To the blank was added reduced GSH (12.5 mmol/L KPB solution) at 20 μL/well.
(In TR-FRET formats the signal depends on donor and acceptor labels being close together.)
One may read the IC50 as the midpoint of a concentration-inhibition curve. Read a low IC50 as higher potency. As for `CS(=O)(=O)NCc1ccc(Cl)c(-c2nc(O)nc(-c3ccc(C(F)(F)F)cc3)n2)c1` [Example 1-20], the IC50 was 1.6 nM. On to `Cc1ccc(-c2nc(O)nc(-c3c(C)cccc3C)n2)cc1` [Example 2-26], for which the IC50 came out at 2700 nM. With `O=C(NCc1ccc(Cl)c(-c2nc(O)nc(-c3ccc(C(F)(F)F)cc3)n2)c1)C1CCCCC1` [Example 1-29], it took 1.1 nM to reach half-maximal inhibition (IC50).

For `Cc1cc(-c2nc(O)nc(-c3cc(CNC(=O)C(C)(C)C(F)(F)F)ccc3Cl)n2)ccc1Cl` [Example 1-112], half-maximal inhibition (IC50) required 0.9 nM.

Compound `Oc1nc(-c2ccc(C#Cc3ccccc3)cc2)nc(-c2c(OCc3ncccc3F)cccc2C(F)(F)F)n1` [Example 2-111] registered an IC50 of 4.4 nM. Take `Cc1ccc(COc2cccc(Cl)c2-c2nc(O)nc(-c3ccc(C(F)(F)F)cc3)n2)cc1` [Example 2-56]: the IC50 is 18 nM. Turning to `CCCOc1cccc(Cl)c1-c1nc(O)nc(-c2ccc(C(F)(F)F)cc2)n1` [Example 2-20], the half-maximal inhibitory concentration (IC50) was 52 nM. `COCCOc1cccc(Cl)c1-c1nc(O)nc(-c2ccc(C(F)(F)F)cc2)n1` [Example 2-34] came in with an IC50 of 163 nM. `CNC(=O)c1cc(-c2nc(O)nc(-c3ccc(OCC4CC4)cc3)n2)c(Cl)cc1C` [Example 3-21] yielded an IC50 of 611 nM.

In turn, `CC(C)(C)C(=O)NCc1ccc(Cl)c(-c2nc(O)nc(-c3ccc(F)cc3)n2)c1` [Example 1-74] had an IC50 of 0.6 nM. `CCc1cc(-c2nc(O)nc(-c3cc(CNC(=O)C(C)(C)C(F)(F)F)ccc3Cl)n2)ccc1F` [Example 1-124] came in with an IC50 of 0.9 nM. Regarding `Oc1nc(-c2ccc(C#Cc3ccccc3)cc2)nc(-c2c(OCc3ccc(Cl)cn3)cccc2C(F)(F)F)n1` [Example 2-112], the IC50 came to 5.9 nM. The same measure, in the same setting: the figure for `CC(C)COCc1ccc(Cl)c(-c2nc(O)nc(-c3ccc(C#CC4CCCCC4)cc3)n2)c1` [Example 1-219] is 41 nM.

`Oc1nc(-c2ccc(C#CC3CCCC3)cc2)nc(-c2c(Cl)cccc2OCc2ccccn2)n1` [Example 2-81] gave an IC50 of 2.7 nM. In the case of `CC1(C)CC(C(=O)NCc2ccc(Cl)c(-c3nc(O)nc(-c4ccc(OCC5CC5)cc4)n3)c2)C1` [Example 1-168], the IC50 was found to be 2.1 nM. On to `CC(C)(C)S(=O)(=O)NCc1ccc(Cl)c(-c2nc(O)nc(-c3ccc(C(F)(F)F)cc3)n2)c1` [Example 1-32], for which the IC50 was 0.7 nM.

`CCOc1cccc(-c2nc(O)nc(-c3cc(CNC(=O)C4(C(F)(F)F)CCCC4)ccc3Cl)n2)c1` [Example 1-85] came in with an IC50 of 0.5 nM.

As to `O=C1N(Cc2ccc(Cl)c(-c3nc(O)nc(-c4ccccc4)n3)c2)CC12CCCC2` [Example 1-255], inhibition was half-maximal at 45 nM (IC50). As for `Cc1cccc(COc2cccc(C(F)(F)F)c2-c2nc(O)nc(-c3ccc(C#Cc4ccccc4)nc3)n2)n1` [Example 2-99], half-maximal inhibition (IC50) was put at 1.7 nM. Compound `Oc1nc(-c2ccc(C#Cc3ccccc3)cc2)nc(-c2c(Cl)cccc2OCc2ccccn2)n1` [Example 2-80] had an IC50 of 1.6 nM. Regarding `CCCc1cccc(-c2nc(O)nc(-c3cc(CNC(=O)C(C)(C)C)ccc3Cl)n2)c1` [Example 1-50], the IC50 came to 0.9 nM. Compound `COC(C)(C)C(=O)N(C)Cc1ccc(Cl)c(-c2nc(O)nc(-c3ccccc3)n2)c1` [Example 1-234] showed an IC50 of 1000 nM.

In turn, `Cc1cc(Cl)c(-c2nc(O)nc(-c3ccc(OCC4CC4)cc3)n2)cc1C(=O)O` [Example 3-19] came in with an IC50 of 24600 nM. Compound `CC(C)(C)C(=O)NCc1ccc(Cl)c(-c2nc(O)nc(-c3cccc(C(F)(F)F)c3)n2)c1` [Example 1-54] displayed an IC50 of 0.9 nM. The compound `CO[C@](C)(C(=O)NC(C)c1ccc(Cl)c(-c2nc(O)nc(-c3ccc(F)c(C)c3)n2)c1)C(F)(F)F` (single isomer, unassigned) [Example 1-189] returned an IC50 of 1100 nM. In turn, `Cc1cc(-c2nc(O)nc(-c3cc(CNC(=O)C(C)(C)C(F)(F)F)ccc3Cl)n2)ccc1OCC1CC1` [Example 1-175] had an IC50 of 1.3 nM. `CN(C)C(=O)NCc1ccc(Cl)c(-c2nc(O)nc(-c3ccc(C(F)(F)F)cc3)n2)c1` [Example 1-34] had an IC50 of 5.9 nM.

`CC(C)Oc1ccc(-c2nc(O)nc(-c3cc(CNC(=O)C(C)(C)C)ccc3Cl)n2)cc1` [Example 1-82] showed an IC50 of 0.8 nM. With `CC(C)(C(=O)NCc1ccc(Cl)c(-c2nc(O)nc(-c3ccc(OCC4CC4)cc3)n2)c1)C(F)(F)F` [Example 1-133], the IC50 turned out to be 0.5 nM. In turn, `CO[C@](C)(C(=O)NCc1ccc(Cl)c(-c2nc(O)nc(-c3ccc(F)c(C4CC4)c3)n2)c1)C(F)(F)F` [Example 1-165] gave a half-maximal inhibitory concentration (IC50) of 0.9 nM.

Regarding `Cc1ccc(F)cc1-c1nc(O)nc(-c2ccc(C(F)(F)F)cc2)n1` [Example 1-1], half-maximal inhibition (IC50) required 813 nM. `Cc1c(CNC(=O)C(C)(C)C(F)(F)F)ccc(Cl)c1-c1nc(O)nc(-c2ccc(OCC(C)C)cc2)n1` [Example 3-18] came in with an IC50 of 1.2 nM. With `CC(C)(C)COc1ccc(-c2nc(O)nc(-c3cc(CCC(=O)NC(C)(C)C)ccc3Cl)n2)cc1` [Example 1-217], the IC50 is 126 nM.

In turn, `CC(C)(C)COc1ccc(-c2nc(O)nc(-c3cc(CC(C)(C)O)ccc3Cl)n2)cc1` [Example 1-214] showed an IC50 of 24 nM. The compound `CC(O)Cc1ccc(Cl)c(-c2nc(O)nc(-c3ccc(OCC(C)(C)C)cc3)n2)c1` (stereo not drawn) [Example 1-216] had an IC50 of 39 nM. With `CC(C)(C)C#Cc1ccc(-c2nc(O)nc(-c3c(Cl)cccc3OCc3ccccn3)n2)cc1` [Example 2-94], the IC50 was found to be 4.1 nM. With `Cc1cccc(COc2cccc(C(F)(F)F)c2-c2nc(O)nc(-c3ccc(C#Cc4ccccc4F)cc3)n2)n1` [Example 2-107], the IC50 is 3.8 nM. Still for that read-out and setting: the figure for `CC(C)(C(=O)NCc1ccc(Cl)c(-c2nc(O)nc(-c3ccc(OCC(F)(F)F)cc3)n2)c1)C(F)(F)F` [Example 1-113] is 0.9 nM. With `Cc1cc(-c2nc(O)nc(-c3cc(CNC(=O)C4(C(F)(F)F)CC4)ccc3Cl)n2)ccc1C(F)(F)F` [Example 1-149], the midpoint of inhibition, the IC50, lay at 0.8 nM. `Oc1nc(-c2ccc(C(F)(F)F)cc2)nc(-c2c(Cl)cccc2OCc2ccccc2)n1` [Example 2-32] had an IC50 of 14 nM.

Compound `Oc1nc(-c2ccc(C(F)(F)F)cc2)nc(-c2c(F)cccc2Cl)n1` [Example 2-10] yielded an IC50 of 73 nM. On the same count and under the same terms, the figure for `O=C(O)Cc1ccc(Cl)c(-c2nc(O)nc(-c3ccc(C(F)(F)F)cc3)n2)c1` [Example 1-23] is 134 nM; for `COCc1ccc(Cl)c(-c2nc(O)nc(-c3ccc(C(F)(F)F)cc3)n2)c1` [Example 1-19] it is 411 nM. Take `CCCOc1ccc(-c2nc(O)nc(-c3c(C)cccc3C)n2)cc1` [Example 2-41]: the IC50 was 429 nM. In turn, `Cc1cccc(C)c1-c1nc(O)nc(-c2ccc(C#CC3CCCCC3)cc2)n1` [Example 2-18] yielded a half-maximal inhibitory concentration (IC50) of 8 nM. The compound `CCS(=O)(=O)NCc1ccc(Cl)c(-c2nc(O)nc(-c3ccc(C(F)(F)F)cc3)n2)c1` [Example 1-31] yielded an IC50 of 1 nM.

The test is the same for the next values; noted with them: at 30 μM test article.
Usually inhibition stands for the drop in the measured response relative to a control, in per cent. A higher inhibition goes with a response far below the control. In turn, `Cc1cccc(C)c1-c1nc(O)nc(-c2ccc(O)cc2)n1` [Example 2-6] registered an inhibition at 30 µM of 28%. As to `Cc1ccc(C(=O)O)cc1-c1nc(O)nc(-c2ccc(C(F)(F)F)cc2)n1` [Example 1-10], the inhibition at 30 µM is 5%.
